# Data reported in paper PMC3199943, “Screening the MayBridge Rule of 3 Fragment Library for Compounds That Interact with the Trypanosoma brucei myo-Inositol-3-Phosphate Synthase and/or Show Trypanocidal Activity” (Molecular Biology International, 2011).
# Tested on: HeLa cells
# Experiment: cells
# Settings: Homo sapiens, HeLa, 65 h, read-out: HeLa Cells Alamar Blue
# Procedure, shortened: (§1)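 Alamar Blue read-out after a 5 h dye incubation that followed ~65 h compound exposure. Cells: HeLa or A549, 2 × 10^4/well, DMEM + 10% FCS + 2 mM L-Glutamine.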
row,SMILES,viability at 500 µM [%]
1,"N#Cc1ccccc1Oc1ccccc1 [compound 591, 2‐phenoxybenzonitrile]",93 ± 2.5
2,"N#Cc1ccc(Oc2ccccn2)cc1 [compound 596, 4‐(pyridin‐2‐yloxy)benzonitrile]",97.7 ± 11
3,"O=C(O)C12CC3CC(CC(O)(C3)C1)C2 [compound 597, 3‐hydroxyadamantane‐1‐carboxylic acid]",75.2 ± 12.6
4,"OCc1ccc(-c2cccs2)s1 [compound 598, 2,2′-bithien-5-ylmethanol]",78 ± 11.6
5,"O=c1c2ccccc2oc2ncccc12 [compound 600, 5H‐chromeno[2,3‐b]pyridin‐5‐one]",78.4 ± 11
6,"Nc1cccc(C(=O)c2ccccc2)c1 [compound 601, (3‐aminophenyl)(phenyl)methanone]",89.2 ± 6.6
7,"O=C(O)c1nsc(Cl)c1Cl [compound 602, 4,5‐dichloroisothiazole‐3‐carboxylic acid]",83.2 ± 12.5
8,"O=C(Nc1ccncc1)c1ccccc1 [compound 603, N1‐(4‐pyridyl)benzamide]",79 ± 15.1
9,"CC(=O)c1ccc(S(C)(=O)=O)cc1 [compound 604, 1‐[4‐(methylsulfonyl)phenyl]ethan‐1‐one]",83.1 ± 19.6
10,"CNCc1cccc(-c2ccncc2)c1 [compound 605, N‐methyl‐N‐(3‐pyridin‐4‐ylbenzyl)amine]",21.3 ± 13.8

# Same assay, conditions: Homo sapiens, HeLa, 65 h, read-out: HeLa Cells Alamar Blue (% survival)
row,SMILES,viability at 500 µM [%]
1,"OCc1ccc(-c2cccs2)s1 [compound 598, 2,2′-bithien-5-ylmethanol]",78 ± 11.6

# Same assay, conditions: Supplementary Table 1; compound 0.5 mM; percentage of controls; mean ± SD (n=3) or SE (n=2)
row,SMILES,HeLa Cells Alamar Blue
1,"CN(N)c1cc(C(F)(F)F)ccn1 [compound 554, 2‐(1‐methylhydrazino)‐4‐(trifluoromethyl)pyridine]",95.6 ± 16.7 percentage of controls
2,"OCc1ccc(CN2CCCC2)cc1 [compound 559, [4‐(pyrrolidin‐1‐ylmethyl)phenyl]methanol]",91.7 ± 15.8 percentage of controls
3,"CC1(C)Cc2cccc(C(=O)O)c2O1 [compound 564, 2,2‐dimethyl‐2,3‐dihydro‐1‐benzofuran‐7‐carboxylic acid]",91.1 ± 19 percentage of controls
4,"COc1c(C(=O)O)csc1Cl [compound 575, 5‐chloro‐4‐methoxythiophene‐3‐carboxylic acid]",90.5 ± 15.4 percentage of controls
5,"CN1CCc2c(sc(N)c2C#N)C1 [compound 581, 2‐amino‐6‐methyl‐4,5,6,7‐tetrahydrothieno[2,3‐c]pyridine‐3‐carbonitrile]",85.8 ± 12.8 percentage of controls
6,"Cn1nc(-c2cccs2)cc1CO [compound 587, (1‐methyl‐3‐thien‐2‐yl‐1H‐pyrazol‐5‐yl)methanol]",91.6 ± 8.8 percentage of controls
7,"NC(=S)c1cccc2c1OCCO2 [compound 592, 2,3‐dihydro‐1,4‐benzodioxine‐5‐carbothioamide]",54.3 ± 15.7 percentage of controls
8,"CN(C)CCOc1ccccc1CO [compound 593, {2‐[2‐(dimethylamino)ethoxy]phenyl}methanol]",77.9 ± 13.5 percentage of controls
9,"CCOC(=O)c1[nH]c(C)c(CC)c1C [compound 594, ethyl 4‐ethyl‐3,5‐dimethyl‐1H‐pyrrole‐2‐carboxylate]",79.8 ± 6.6 percentage of controls
10,"NCc1csc(-c2cccs2)n1 [compound 599, [2‐(2‐thienyl)‐1,3‐thiazol‐4‐yl]methylamine]",71.9 ± 7.1 percentage of controls

# Tested on: A549 cells
# Experiment: Cytotoxicity against A549 cells, Alamar Blue
# Format: cell-based
# Settings: Homo sapiens, A549, 65 h; Supplementary Table 1; compound 0.5 mM; percentage of controls (n=1)
# Procedure, shortened: as §1
row,SMILES,viability at 500 µM [%]
1,"N#Cc1ccccc1Oc1ccccc1 [compound 591, 2‐phenoxybenzonitrile]",58.3
2,"N#Cc1ccc(Oc2ccccn2)cc1 [compound 596, 4‐(pyridin‐2‐yloxy)benzonitrile]",72.1
3,"O=C(O)C12CC3CC(CC(O)(C3)C1)C2 [compound 597, 3‐hydroxyadamantane‐1‐carboxylic acid]",79.4
4,"OCc1ccc(-c2cccs2)s1 [compound 598, 2,2′-bithien-5-ylmethanol]",86.3
5,"O=c1c2ccccc2oc2ncccc12 [compound 600, 5H‐chromeno[2,3‐b]pyridin‐5‐one]",126
6,"Nc1cccc(C(=O)c2ccccc2)c1 [compound 601, (3‐aminophenyl)(phenyl)methanone]",63.8
7,"O=C(O)c1nsc(Cl)c1Cl [compound 602, 4,5‐dichloroisothiazole‐3‐carboxylic acid]",68.2
8,"O=C(Nc1ccncc1)c1ccccc1 [compound 603, N1‐(4‐pyridyl)benzamide]",57.3
9,"CC(=O)c1ccc(S(C)(=O)=O)cc1 [compound 604, 1‐[4‐(methylsulfonyl)phenyl]ethan‐1‐one]",63.9
10,"CNCc1cccc(-c2ccncc2)c1 [compound 605, N‐methyl‐N‐(3‐pyridin‐4‐ylbenzyl)amine]",36.2

# Same assay, conditions: Supplementary Table 1; compound 0.5 mM; percentage of controls (n=1)
row,SMILES,A549 Cells Alamar Blue
1,"CN(N)c1cc(C(F)(F)F)ccn1 [compound 554, 2‐(1‐methylhydrazino)‐4‐(trifluoromethyl)pyridine]",96.1 percentage of controls
2,"OCc1ccc(CN2CCCC2)cc1 [compound 559, [4‐(pyrrolidin‐1‐ylmethyl)phenyl]methanol]",110 percentage of controls
3,"CC1(C)Cc2cccc(C(=O)O)c2O1 [compound 564, 2,2‐dimethyl‐2,3‐dihydro‐1‐benzofuran‐7‐carboxylic acid]",101.2 percentage of controls
4,"COc1c(C(=O)O)csc1Cl [compound 575, 5‐chloro‐4‐methoxythiophene‐3‐carboxylic acid]",91.2 percentage of controls
5,"CN1CCc2c(sc(N)c2C#N)C1 [compound 581, 2‐amino‐6‐methyl‐4,5,6,7‐tetrahydrothieno[2,3‐c]pyridine‐3‐carbonitrile]",82.2 percentage of controls
6,"Cn1nc(-c2cccs2)cc1CO [compound 587, (1‐methyl‐3‐thien‐2‐yl‐1H‐pyrazol‐5‐yl)methanol]",65.8 percentage of controls
7,"NC(=S)c1cccc2c1OCCO2 [compound 592, 2,3‐dihydro‐1,4‐benzodioxine‐5‐carbothioamide]",39.8 percentage of controls
8,"CN(C)CCOc1ccccc1CO [compound 593, {2‐[2‐(dimethylamino)ethoxy]phenyl}methanol]",59.2 percentage of controls
9,"CCOC(=O)c1[nH]c(C)c(CC)c1C [compound 594, ethyl 4‐ethyl‐3,5‐dimethyl‐1H‐pyrrole‐2‐carboxylate]",59.9 percentage of controls
10,"NCc1csc(-c2cccs2)n1 [compound 599, [2‐(2‐thienyl)‐1,3‐thiazol‐4‐yl]methylamine]",98.4 percentage of controls

# Biological target: T1, TbINO1 (Trypanosoma brucei brucei, UniProt Q5QQ46)
# T1 sequence (Q5QQ46 1-528): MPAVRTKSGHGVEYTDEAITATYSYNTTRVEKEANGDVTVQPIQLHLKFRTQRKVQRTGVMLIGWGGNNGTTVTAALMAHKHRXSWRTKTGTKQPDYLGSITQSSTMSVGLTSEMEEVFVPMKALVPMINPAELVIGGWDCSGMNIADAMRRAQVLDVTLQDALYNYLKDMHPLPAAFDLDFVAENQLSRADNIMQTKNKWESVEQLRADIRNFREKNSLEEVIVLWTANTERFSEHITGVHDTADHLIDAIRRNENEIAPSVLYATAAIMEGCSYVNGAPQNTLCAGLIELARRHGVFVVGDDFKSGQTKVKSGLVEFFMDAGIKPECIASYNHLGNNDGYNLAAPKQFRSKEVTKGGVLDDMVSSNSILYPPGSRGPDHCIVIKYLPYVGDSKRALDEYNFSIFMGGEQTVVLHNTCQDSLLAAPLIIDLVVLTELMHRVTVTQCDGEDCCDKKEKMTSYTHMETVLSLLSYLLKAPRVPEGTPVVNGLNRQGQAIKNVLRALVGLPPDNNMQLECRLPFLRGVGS
# Experiment: biochemical
# Format: binding
# Settings: Supplementary Table 1; compound 1mM; mean ± SD from Boltzman curve fitting
row,SMILES,Tb Ino1 Tm Shift [˚C] [°C]
1,"CN(N)c1cc(C(F)(F)F)ccn1 [compound 554, 2‐(1‐methylhydrazino)‐4‐(trifluoromethyl)pyridine]",0.15 ± 0.08
2,"OCc1ccc(CN2CCCC2)cc1 [compound 559, [4‐(pyrrolidin‐1‐ylmethyl)phenyl]methanol]",0.05 ± 0.08
3,"CC1(C)Cc2cccc(C(=O)O)c2O1 [compound 564, 2,2‐dimethyl‐2,3‐dihydro‐1‐benzofuran‐7‐carboxylic acid]",0.35 ± 0.07
4,"COc1c(C(=O)O)csc1Cl [compound 575, 5‐chloro‐4‐methoxythiophene‐3‐carboxylic acid]",1.07 ± 0.08
5,"CN1CCc2c(sc(N)c2C#N)C1 [compound 581, 2‐amino‐6‐methyl‐4,5,6,7‐tetrahydrothieno[2,3‐c]pyridine‐3‐carbonitrile]",1.39 ± 0.08
6,"Cn1nc(-c2cccs2)cc1CO [compound 587, (1‐methyl‐3‐thien‐2‐yl‐1H‐pyrazol‐5‐yl)methanol]",0.36 ± 0.07
7,"NC(=S)c1cccc2c1OCCO2 [compound 592, 2,3‐dihydro‐1,4‐benzodioxine‐5‐carbothioamide]",0.18 ± 0.07
8,"CN(C)CCOc1ccccc1CO [compound 593, {2‐[2‐(dimethylamino)ethoxy]phenyl}methanol]",0.13 ± 0.06
9,"CCOC(=O)c1[nH]c(C)c(CC)c1C [compound 594, ethyl 4‐ethyl‐3,5‐dimethyl‐1H‐pyrrole‐2‐carboxylate]",0.17 ± 0.08
10,"NCc1csc(-c2cccs2)n1 [compound 599, [2‐(2‐thienyl)‐1,3‐thiazol‐4‐yl]methylamine]",0.41 ± 0.06

# Same assay, conditions: read-out: Tb Ino1 Tm Shift [˚C]
row,SMILES,ΔTm at 1000 µM [°C]
1,"N#Cc1ccccc1Oc1ccccc1 [compound 591, 2‐phenoxybenzonitrile]",0.24 ± 0.06
2,"N#Cc1ccc(Oc2ccccn2)cc1 [compound 596, 4‐(pyridin‐2‐yloxy)benzonitrile]",0.68 ± 0.07
3,"O=C(O)C12CC3CC(CC(O)(C3)C1)C2 [compound 597, 3‐hydroxyadamantane‐1‐carboxylic acid]",0.29 ± 0.06
4,"O=c1c2ccccc2oc2ncccc12 [compound 600, 5H‐chromeno[2,3‐b]pyridin‐5‐one]",0.62 ± 0.05
5,"O=C(O)c1nsc(Cl)c1Cl [compound 602, 4,5‐dichloroisothiazole‐3‐carboxylic acid]",0.1 ± 0.07
6,"O=C(Nc1ccncc1)c1ccccc1 [compound 603, N1‐(4‐pyridyl)benzamide]",0.32 ± 0.07

# Second part, the compound after the results:
row,ΔTm at 1000 µM [°C],SMILES
1,0.21 ± 0.06,"Nc1cccc(C(=O)c2ccccc2)c1 [compound 601, (3‐aminophenyl)(phenyl)methanone]"
2,0.18 ± 0.06,"CC(=O)c1ccc(S(C)(=O)=O)cc1 [compound 604, 1‐[4‐(methylsulfonyl)phenyl]ethan‐1‐one]"
3,0.05 ± 0.07,"CNCc1cccc(-c2ccncc2)c1 [compound 605, N‐methyl‐N‐(3‐pyridin‐4‐ylbenzyl)amine]"

# Same assay, conditions: read-out: TbIno1 Tm shift [°C]
row,ΔTm at 1000 µM [°C],SMILES
1,1.72 ± 0.06,"OCc1ccc(-c2cccs2)s1 [compound 598, 2,2′-bithien-5-ylmethanol]"
